Patent US20040006070A1, “Intraspinal continuous infusion of midazolam hydrochloride for the treatment of pain” (priority 2002, published 2004)
Where a name gives a salt, the structure may show the parent alone.

Experiment: Bloodwork: complete blood count, electrolytes, extended blood chemistry
Assay type: in vivo, sheep
Procedure: Indirect blood pressure, pulse recording, pain testing (mechanical stimulus device, cold and warm water baths see description in procedure) and weight were taken on days 1, 3, 7, 15, 22, 29, 36, and 43. Venous blood samples (15 ml drawn from the jugular vein with Vacutainer brand blood collection tubes) for complete blood count, electrolytes, and extended blood chemistry were drawn on days 1, 15, and 43 (mild procedure only light hand restraint necessary).

[1] = sheep Chicken Hawk #87, 5 mg/day, Baseline
[2] = sheep Chicken Hawk #87, 5 mg/day, Day 1
[3] = sheep Chicken Hawk #87, 5 mg/day, Day 15
[4] = sheep Chicken Hawk #87, 5 mg/day, Day 43
[5] = sheep Elmer Fudd #437, 5 mg/day, Baseline
[6] = sheep Elmer Fudd #437, 5 mg/day, Day 1
[7] = sheep Elmer Fudd #437, 5 mg/day, Day 15
[8] = sheep Elmer Fudd #437, 5 mg/day, Day 43

## Cc1ncc2n1-c1ccc(Cl)cc1C(c1ccccc1F)=NC2 [Midazolam, midazolam hydrochloride]
Sheep #498, 10 mg/day, Day 43
  MCH: 9.3 pg
  MCHC: 30.3 g/dL
  MCV: 30.9 fL
  Na+: 148 mEq/l
  RBC: 1.003e+07 µL⁻¹
  WBC: 9700 µL⁻¹
Sheep #498, 10 mg/day, Day 43, ref 0.14-0.32
  Total Bili: 0.1 mg/dL
Sheep #498, 10 mg/day, Day 43, ref 1-2.7
  Creatinine: 1.5 mg/dL
Sheep #498, 10 mg/day, Day 43, ref 2.4-3
  Albumin: 3.6 g/dL
Sheep #498, 10 mg/day, Day 43, ref 3.9-5.4
  K+: 4.0 mEq/l
Sheep #498, 10 mg/day, Day 43, ref 5-7.3
  Phos: 5.8 Mg/dl
Sheep #498, 10 mg/day, Day 43, ref 6-7.9
  Total Prot: 6.1 g/dL
Sheep #498, 10 mg/day, Day 43, result in words
  Platlet Count: Ade-
Sheep #518, 5 mg/day, Day 1
  ALT: 12.0 U/L
  AST: 112 U/L
  Alk Phos: 157 U/L
  BUN: 15 mg/dL
  CPK: 148 U/L
  Cholesterol: 96 mg/dL
  Differential Count: Eosin: 1%
  Differential Count: Lymph: 29%
  Differential Count: Seg: 70%
  Gamma GT: 79 U/L
  Glucose: 8.8 mg/dL
  Hct: 35.0%
  Hgb: 12.2 g/dL
  MCH: 9.6 pg
  MCHC: 31.4 G/dl
  MCV: 30.6 fL
  Na+: 154 mEq/l
  Platlet Count: 642000 µL⁻¹
  RBC: 1.144e+07 µL⁻¹
  WBC: 8400 µL⁻¹
Sheep #518, 5 mg/day, Day 1, ref 0.14-0.32
  Total Bili: 0.2 mg/dL
Sheep #518, 5 mg/day, Day 1, ref 1-2.7
  Creatinine: 1.1 mg/dL
Sheep #518, 5 mg/day, Day 1, ref 2.4-3
  Albumin: 3.6 G/dl
Sheep #518, 5 mg/day, Day 1, ref 3.9-5.4
  K+: 4.9 mEq/l
Sheep #518, 5 mg/day, Day 1, ref 5-7.3
  Phos: 7.2 mg/dL
Sheep #518, 5 mg/day, Day 1, ref 6-7.9
  Total Prot: 7.0 G/dl
Sheep #518, 5 mg/day, Day 3
  ALT: 10.0 U/L
  AST: 99 U/L
  Alk Phos: 99 U/L
  BUN: 5 mg/dL
  CPK: 834 U/L
  Cholesterol: 87 mg/dL
  Differential Count: Atyp lym: 1%
  Differential Count: Eosin: 1%
  Differential Count: Lymph: 47%
  Differential Count: Seg: 51%
  Gamma GT: 79 U/L
  Glucose: 122 mg/dL
  Hct: 33.0%
  Hgb: 11.3 g/dL
  MCH: 9.3 pg
  MCHC: 30.1 G/dl
  MCV: 30.7 fL
  Na+: 151 mEq/l
  Platlet Count: 546000 µL⁻¹
  RBC: 1.075e+07 µL⁻¹
  WBC: 6400 µL⁻¹
Sheep #518, 5 mg/day, Day 3, ref 0.14-0.32
  Total Bili: 0.1 mg/dL
Sheep #518, 5 mg/day, Day 3, ref 1-2.7
  Creatinine: 1.4 mg/dL
Sheep #518, 5 mg/day, Day 3, ref 2.4-3
  Albumin: 3.8 G/dl
Sheep #518, 5 mg/day, Day 3, ref 3.9-5.4
  K+: 4.4 mEq/l
Sheep #518, 5 mg/day, Day 3, ref 5-7.3
  Phos: 5.7 mg/dL
Sheep #518, 5 mg/day, Day 3, ref 6-7.9
  Total Prot: 6.6 G/dl
Sheep #518, 5 mg/day, Day 15
  ALT: 13.0 U/L
  AST: 74 U/L
  Alk Phos: 100 U/L
  BUN: 13 mg/dL
  CPK: 172 U/L
  Cholesterol: 83 mg/dL
  Differential Count: Eosin: 5%
  Differential Count: Lymph: 62%
  Differential Count: Seg: 33%
  Gamma GT: 90 U/L
  Glucose: 74 mg/dL
  Hct: 33.0%
  Hgb: 11.6 g/dL
  MCH: 9.6 pg
  MCHC: 31.3 G/dl
  MCV: 30.7 fL
  Na+: 151 mEq/l
  Platlet Count: 533000 µL⁻¹
  RBC: 1.208e+07 µL⁻¹
  WBC: 5300 µL⁻¹
Sheep #518, 5 mg/day, Day 15, ref 0.14-0.32
  Total Bili: 0.1 mg/dL
Sheep #518, 5 mg/day, Day 15, ref 1-2.7
  Creatinine: 1.6 mg/dL
Sheep #518, 5 mg/day, Day 15, ref 2.4-3
  Albumin: 4.1 G/dl
Sheep #518, 5 mg/day, Day 15, ref 3.9-5.4
  K+: 4.6 mEq/l
Sheep #518, 5 mg/day, Day 15, ref 5-7.3
  Phos: 5.1 mg/dL
Sheep #518, 5 mg/day, Day 15, ref 6-7.9
  Total Prot: 6.7 G/dl
Sheep #518, 5 mg/day, Day 43
  ALT: 12.0 U/L
  AST: 76 U/L
  Alk Phos: 89 U/L
  BUN: 7 mg/dL
  CPK: 787 U/L
  Cholesterol: 69 mg/dL
  Differential Count: Atyp lym: 1%
  Differential Count: Eosin: 4%
  Differential Count: Lymph: 48%
  Differential Count: Seg: 47%
  Gamma GT: 68 U/L
  Glucose: 89 mg/dL
  Hct: 44.6%
  Hgb: 13.7 g/dL
  MCH: 9.6 pg
  MCHC: 30.7 G/dl
  MCV: 31.1 fL
  Na+: 152 mEq/l
  Platlet Count: 448000 µL⁻¹
  RBC: 1.254e+07 µL⁻¹
  WBC: 4800 µL⁻¹
Sheep #518, 5 mg/day, Day 43, ref 0.14-0.32
  Total Bili: 0.1 mg/dL
Sheep #518, 5 mg/day, Day 43, ref 1-2.7
  Creatinine: 1.7 mg/dL
Sheep #518, 5 mg/day, Day 43, ref 2.4-3
  Albumin: 3.5 G/dl
Sheep #518, 5 mg/day, Day 43, ref 3.9-5.4
  K+: 4.6 mEq/l
Sheep #518, 5 mg/day, Day 43, ref 5-7.3
  Phos: 6.4 mg/dL
Sheep #518, 5 mg/day, Day 43, ref 6-7.9
  Total Prot: 6.2 G/dl
[1]
  Differential Count: Atyp lym: 0%
  Differential Count: Baso: 0%
  Differential Count: Eosin: 2%
  Differential Count: Lymph: 41%
  Differential Count: Mono: 4%
  Differential Count: Seg: 53%
  Hct: 31.5%
  Hgb: 10.8 g/dL
  MCH: 11.0 pg
  MCHC: 34.2 g/dL
  MCV: 32.3 fL
  Platlet Count: 848000 µL⁻¹
  RBC: 9.77e+06 µL⁻¹
  WBC: 6180 µL⁻¹
[2]
  ALT: 4 U/L
  AST: 63 U/L
  Albumin: 3.2 g/dL
  Alk Phos: 54 U/L
  BUN: 14 mg/dL
  CPK: 163 U/L
  Cholesterol: 71 mg/dL
  Creatinine: 1.3 mg/dL
  Differential Count: Atyp lym: 0%
  Differential Count: Baso: 0%
  Differential Count: Eosin: 2%
  Differential Count: Lymph: 55%
  Differential Count: Mono: 7%
  Differential Count: Seg: 36%
  Gamma GT: 55 U/L
  Glucose: 67 mg/dL
  Hct: 34.1%
  Hgb: 11.7 g/dL
  K+: 4.5 mEq/l
  MCH: 30.9 pg
  MCHC: 34.3 g/dL
  MCV: 30.19 fL
  Na+: 150 mEq/l
  Phos: 6.6 mg/dL
  Platlet Count: 1.28e+06 µL⁻¹
  RBC: 1.1e+07 µL⁻¹
  Total Bili: 0.1 mg/dL
  Total Prot: 5.7 g/dL
  WBC: 6000 µL⁻¹
[3]
  ALT: 6 U/L
  AST: 58 U/L
  Albumin: 3.8 g/dL
  Alk Phos: 79 U/L
  BUN: 17 mg/dL
  CPK: 425 U/L
  Cholesterol: 61 mg/dL
  Creatinine: 1.3 mg/dL
  Differential Count: Atyp lym: 0%
  Differential Count: Baso: 1%
  Differential Count: Eosin: 4%
  Differential Count: Lymph: 62%
  Differential Count: Mono: 4%
  Differential Count: Seg: 29%
  Gamma GT: 64 U/L
  Glucose: 79 mg/dL
  Hct: 29.8%
  Hgb: 10.0 g/dL
  K+: 4.7 mEq/l
  MCH: 10.4 pg
  MCHC: 33.6 g/dL
  MCV: 30.8 fL
  Na+: 148 mEq/l
  Phos: 5.0 mg/dL
  Platlet Count: 1.018e+06 µL⁻¹
  RBC: 9.7e+06 µL⁻¹
  Total Bili: 0.1 mg/dL
  Total Prot: 6.2 g/dL
  WBC: 5690 µL⁻¹
[4]
  ALT: 8 U/L
  AST: 62 U/L
  Albumin: 3.8 g/dL
  Alk Phos: 149 U/L
  BUN: 14 mg/dL
  CPK: 61 U/L
  Cholesterol: 62 mg/dL
  Creatinine: 1.1 mg/dL
  Differential Count: Atyp lym: 1%
  Differential Count: Baso: 1%
  Differential Count: Eosin: 5%
  Differential Count: Lymph: 53%
  Differential Count: Mono: 3%
  Differential Count: Seg: 37%
  Gamma GT: 55 U/L
  Glucose: 82 mg/dL
  Hct: 32.3%
  Hgb: 10.7 g/dL
  K+: 5.0 mEq/l
  MCH: 10.5 pg
  MCHC: 33.0 g/dL
  MCV: 31.7 fL
  Na+: 147 mEq/l
  Phos: 6.5 mg/dL
  Platlet Count: 891000 µL⁻¹
  RBC: 1.02e+07 µL⁻¹
  Total Bili: 0.1 mg/dL
  Total Prot: 6.5 g/dL
  WBC: 5130 µL⁻¹
[5]
  Differential Count: Atyp lym: 0%
  Differential Count: Bands: 0%
  Differential Count: Eosin: 54%
  Differential Count: Lymph: 35%
  Differential Count: Mono: 9%
  Differential Count: Seg: 51%
  Hct: 38.5%
  Hgb: 13.4 g/dL
  MCH: 12.0 pg
  MCHC: 34.7 G/dl
  MCV: 34.5 fL
  Platlet Count: 562000 µL⁻¹
  RBC: 1.12e+07 µL⁻¹
  WBC: 5320 µL⁻¹
[6]
  ALT: 8 U/L
  AST: 70 U/L
  Albumin: 4.1 g/dL
  Alk Phos: 49 U/L
  BUN: 17 mg/dL
  CPK: 49 U/L
  Cholesterol: 78 mg/dL
  Creatinine: 1.3 mg/dL
  Differential Count: Atyp lym: 0%
  Differential Count: Bands: 1%
  Differential Count: Eosin: 1%
  Differential Count: Lymph: 31%
  Differential Count: Mono: 6%
  Differential Count: Seg: 61%
  Gamma GT: 51 U/L
  Glucose: 104 mg/dL
  Hct: 36.1%
  Hgb: 12.4 g/dL
  K+: 4.7 mEq/l
  MCH: 11.4 pg
  MCHC: 34.3 G/dl
  MCV: 33.4 fL
  Na+: 150 mEq/l
  Phos: 5.9 mg/dL
  Platlet Count: 788000 µL⁻¹
  RBC: 1.08e+07 µL⁻¹
  Total Bili: 0.1 mg/dL
  Total Prot: 7.4 g/dL
  WBC: 6600 µL⁻¹
[7]
  ALT: 6 U/L
  AST: 67 U/L
  Albumin: 3.8 g/dL
  Alk Phos: 88 U/L
  BUN: 15 mg/dL
  CPK: 77 U/L
  Cholesterol: 74 mg/dL
  Creatinine: 1.2 mg/dL
  Differential Count: Atyp lym: 0%
  Differential Count: Bands: 0%
  Differential Count: Eosin: 10%
  Differential Count: Lymph: 39%
  Differential Count: Mono: 2%
  Differential Count: Seg: 49%
  Gamma GT: 54 U/L
  Glucose: 73 mg/dL
  Hct: 37.3%
  Hgb: 12.7 g/dL
  K+: 4.7 mEq/l
  MCH: 11.2 pg
  MCHC: 34.1 G/dl
  MCV: 32.8 fL
  Na+: 149 mEq/l
  Phos: 6.6 mg/dL
  Platlet Count: 677000 µL⁻¹
  RBC: 1.14e+07 µL⁻¹
  Total Bili: 0.1 mg/dL
  Total Prot: 6.8 g/dL
  WBC: 4990 µL⁻¹
[8]
  ALT: 9 U/L
  AST: 61 U/L
  Albumin: 4.1 g/dL
  Alk Phos: 72 U/L
  BUN: 16 mg/dL
